Legend:
EAE in B6 mice = assay: EAE dose titration experiment in B6 mice with spleen and CNS cell analysis; type: in vivo; conditions: for EAE disease overall, dose titration: 50 µg, 100 µg or 200 µg every day from day 8
Protocol: A dose titration experiment was also conducted in EAE mice. EAE was induced in 28 B6 mice with MOG/CFA and PT as above. Mice were scored on day 7 as indicated above and divided into groups by score so means are as equal as possible.
At the completion of the experiment, the vehicle control and 200 µg/day groups were euthanized and spleen and CNS samples obtained.

Treg cells = assay: Treg cell differentiation in in vitro cell culture; type: cell-based
RXRβ = target: T1, RXRβ (Homo sapiens, UniProt P28702); assay: Competitive displacement of [3H]-9CRA from purified receptor; conditions: 10 nM [3H]-9CRA; read-out: RXR Binding Affinity Ki (nM) RXRβ
T1 construct: an expression construct including a full length RXRα, RXRβ, or RXRy; expressed in transfected cells; host or cells: CV-1
T1 sequence (P28702 1-533): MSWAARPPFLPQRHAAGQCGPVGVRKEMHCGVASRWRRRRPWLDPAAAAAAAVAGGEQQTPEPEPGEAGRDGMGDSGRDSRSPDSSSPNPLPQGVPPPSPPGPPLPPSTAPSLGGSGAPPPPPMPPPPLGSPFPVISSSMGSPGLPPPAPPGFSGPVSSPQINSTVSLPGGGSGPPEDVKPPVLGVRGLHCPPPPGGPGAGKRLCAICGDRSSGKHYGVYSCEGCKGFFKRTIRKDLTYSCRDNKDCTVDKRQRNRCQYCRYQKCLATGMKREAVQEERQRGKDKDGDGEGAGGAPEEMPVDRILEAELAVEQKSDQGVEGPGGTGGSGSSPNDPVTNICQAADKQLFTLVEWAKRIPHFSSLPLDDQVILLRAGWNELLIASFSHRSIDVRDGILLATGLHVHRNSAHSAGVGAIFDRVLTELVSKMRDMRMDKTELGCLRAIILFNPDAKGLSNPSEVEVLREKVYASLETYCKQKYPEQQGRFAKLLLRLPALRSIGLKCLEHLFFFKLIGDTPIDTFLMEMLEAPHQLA
Source text: (§1) Standard errors (±) among independent experiments are indicated.

RXRγ = target: T2, RXRγ (Homo sapiens, UniProt P48443); assay: as above; conditions: 10 nM [3H]-9CRA; read-out: RXR Binding Affinity Ki (nM) RXRγ
T2 construct: an expression construct including a full length RXRα, RXRβ, or RXRy; expressed in transfected cells; host or cells: CV-1
T2 sequence (P48443 1-463): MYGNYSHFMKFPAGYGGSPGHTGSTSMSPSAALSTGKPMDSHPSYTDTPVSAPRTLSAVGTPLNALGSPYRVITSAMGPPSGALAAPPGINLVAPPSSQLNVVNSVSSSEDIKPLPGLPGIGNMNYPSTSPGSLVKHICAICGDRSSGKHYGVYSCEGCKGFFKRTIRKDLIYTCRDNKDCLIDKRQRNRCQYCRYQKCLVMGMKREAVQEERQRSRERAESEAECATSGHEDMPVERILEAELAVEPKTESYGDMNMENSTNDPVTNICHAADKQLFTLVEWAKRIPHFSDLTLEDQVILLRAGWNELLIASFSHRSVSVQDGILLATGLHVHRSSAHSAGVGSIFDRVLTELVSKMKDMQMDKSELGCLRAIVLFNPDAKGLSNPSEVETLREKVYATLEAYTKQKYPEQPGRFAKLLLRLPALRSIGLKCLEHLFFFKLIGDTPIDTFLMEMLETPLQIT
Source text: as §1

RXRα = target: T3, RXRα (Homo sapiens, UniProt P19793); assay: as above; conditions: 10 nM [3H]-9CRA; read-out: RXR Binding Affinity Ki (nM) RXRα
T3 construct: an expression construct including a full length RXRα, RXRβ, or RXRy; expressed in transfected cells; host or cells: CV-1
T3 sequence (P19793 1-462): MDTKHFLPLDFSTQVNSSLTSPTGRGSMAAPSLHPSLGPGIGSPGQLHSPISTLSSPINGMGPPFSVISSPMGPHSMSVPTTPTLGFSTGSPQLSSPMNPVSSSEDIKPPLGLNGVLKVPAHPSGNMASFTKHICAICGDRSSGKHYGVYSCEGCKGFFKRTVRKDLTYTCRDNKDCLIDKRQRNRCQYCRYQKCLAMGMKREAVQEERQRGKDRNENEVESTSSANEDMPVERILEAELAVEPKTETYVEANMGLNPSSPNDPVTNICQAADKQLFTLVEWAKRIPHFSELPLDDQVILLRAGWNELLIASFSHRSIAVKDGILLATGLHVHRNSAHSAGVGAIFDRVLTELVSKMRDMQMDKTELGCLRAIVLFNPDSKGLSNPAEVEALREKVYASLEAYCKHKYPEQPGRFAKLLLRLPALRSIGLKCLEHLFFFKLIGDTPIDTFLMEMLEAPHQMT
Source text: as §1

Nurr1/RXR heterodimer = target: T4, Nurr1/RXR heterodimer (Homo sapiens, UniProt P19793); assay: Nurr1/RXR transactivation assay, COS7 cells, 3xNBRE-tk-luc; type: cell-based; conditions: for activation of the Nurr1/RXR heterodimer: COS7 cells, 20 hr
T4 construct: full length Nurr-1 with or without full-length RXRα plasmid; expressed in transfected cells; host or cells: COS7
Source text: For PPARy: CV-1 cells were transfected with 3x(rAOX/DR1)-tk-Luc reporter gene and an expression vector for PPARy. For FXR:CV-1 cells were transfected with 3x(IBABP/IRI)-tk-Luc reporter gene and vectors for FXR and RXRα. For LXR:CV-1 cells were transfected with 3x(PLTP/LXRE)-tk-Luc reporter gene with vectors for LXRα or LXRβ. For Nurr1: COS7 cells were transfected with 3xNBRE-tk-luc reporter gene and full length Nurr-1 with or without full-length RXRα plasmid. […] Luciferase data were normalized to co-transfected β-gal activity. Luciferase activity was expressed as percent of maximal activity obtained using specific agonists. Rosiglitazone (PPARy), GW4064 (FXR), T0901317 (LXR).

EAE in SJL mice = assay: EAE in SJL mice, PLP peptide induced; type: in vivo; conditions: for symptoms of EAE in SJL mice: 50 µg i.p. every other day from day 7
Protocol: To determine whether a RXR agonist or an ester of a RXR agonist can attenuate multiple sclerosis, SJL mice were immunized to induce EAE by s.c. injection at the base of their spine with 200 µL of adjuvant containing 200 µg proteolipid proteins (139-151) (PLP peptide; Peptides International, Louisville, KY) and 400 µg of non-viable M. tuberculosis H37 desiccate emulsified in a mixture of incomplete Freund’s adjuvant and PBS. Mice were also given 150 ng of pertussis toxin in PBS i.p. on the same day as PLP emulsion injection and 2 days later. […] Mice were scored using the scale described in Example 6.

RARα = target: T5, RARα (Homo sapiens, UniProt P10276); assay: RAR transactivation assay (ER-RAR fusion, ERE-tk-Luc reporter, CV-1 cells); type: cell-based
T5 construct: expressed in transfected cells; host or cells: CV-1
Source text: Data are mean values ± SE from five independent experiments.

[1] = Thyroid function in human subjects treated with IRX4204; type: in vivo
[2] = 200 µg/day, restimulation with PMA/Ionomycin
[3] = 50 µg i.p. every other day from day 7, n=6

T4 sequence (P43354 whole entry partner, one chain of several): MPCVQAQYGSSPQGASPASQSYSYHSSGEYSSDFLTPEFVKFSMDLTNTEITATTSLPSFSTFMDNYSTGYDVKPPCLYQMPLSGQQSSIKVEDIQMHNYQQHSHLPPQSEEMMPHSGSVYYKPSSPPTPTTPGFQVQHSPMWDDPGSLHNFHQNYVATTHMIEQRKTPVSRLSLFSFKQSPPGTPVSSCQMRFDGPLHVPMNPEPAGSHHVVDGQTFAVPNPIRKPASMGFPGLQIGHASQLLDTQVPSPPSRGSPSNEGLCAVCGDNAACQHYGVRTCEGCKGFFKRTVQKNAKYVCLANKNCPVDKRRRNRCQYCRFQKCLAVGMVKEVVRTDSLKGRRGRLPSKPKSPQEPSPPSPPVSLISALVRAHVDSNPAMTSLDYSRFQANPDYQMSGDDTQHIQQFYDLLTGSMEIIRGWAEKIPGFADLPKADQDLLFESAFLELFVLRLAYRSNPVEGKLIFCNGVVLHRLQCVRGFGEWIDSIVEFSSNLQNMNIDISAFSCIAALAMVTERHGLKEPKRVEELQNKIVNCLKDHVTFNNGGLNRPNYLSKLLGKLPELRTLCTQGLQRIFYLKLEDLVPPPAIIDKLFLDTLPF
T5 sequence (P10276 183-417 limits assumed, species assumed): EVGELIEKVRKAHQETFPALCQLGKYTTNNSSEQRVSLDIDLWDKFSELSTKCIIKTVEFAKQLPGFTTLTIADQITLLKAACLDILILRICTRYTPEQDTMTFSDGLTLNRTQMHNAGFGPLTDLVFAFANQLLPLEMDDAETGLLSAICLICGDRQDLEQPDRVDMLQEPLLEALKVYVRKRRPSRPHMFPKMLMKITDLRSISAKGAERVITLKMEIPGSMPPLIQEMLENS

CCOC(=O)/C=C(C)/C=C/[C@@H]1C[C@]1(C)c1ccc2c(c1)C(C)(C)CCC2(C)C [IRX4204EE, 3,7-dimethyl-6(S),7(S)-methano,7-[1,1,4,4-tetramethyl-1,2,3,4-tetrahydronaphth-7-yl]2(E),4(E) heptadienoic ethyl ester]
EAE disease overall, dose titration (EAE in B6 mice): more active than IRX4204 at each of the doses tested | promoting the differentiation of Treg cells, relative to parent form (Treg cells; in vitro cell culture): less active than its parent form | Ki (RXRβ): > 1000 nM | Ki (RXRγ): > 1000 nM | Ki (RXRα): > 1000 nM | activation of the Nurr1/RXR heterodimer (Nurr1/RXR heterodimer): very little activity | symptoms of EAE in SJL mice (EAE in SJL mice): greater efficacy than IRX4204 | EC50 (RARα; CV-1 cells, 20 hours, luciferase activity): > 1000 nM

CC(/C=C/[C@@H]1C[C@]1(C)c1ccc2c(c1)C(C)(C)CCC2(C)C)=C\C(=O)O [IRX4204, 3,7-dimethyl-6(S),7(S)-methano,7-[1,1,4,4-tetramethyl-1,2,3,4-tetrahydronaphth-7-yl]2(E),4(E) heptadienoic acid]
circulating thyroxine levels [1]: reduction in circulating thyroxine levels | plasma levels of TSH [1]: reduction in plasma levels of TSH | EAE disease overall, dose titration (EAE in B6 mice): significantly less disease overall | CCR6 expression on CD4 T cells, spleen (EAE in B6 mice; 200 µg/day): lowered | co-expression of IFNg and IL-17A by CD4 T cells in CNS (EAE in B6 mice; 200 µg/day): not significantly different between groups | frequency of CD4+ CD25hi cells, spleen (EAE in B6 mice; 200 µg/day): not altered | number of CD4+ CD25hi cells, spleen (EAE in B6 mice; 200 µg/day): reduced | total number of effector and memory CD4 T cells (CD44), spleen (EAE in B6 mice; 200 µg/day): decreased | total number of infiltrating CD4 T cells in the CNS (EAE in B6 mice; 200 µg/day): reduced | total number of recently activated CD4 T cells (CD69 and CD44), spleen (EAE in B6 mice; 200 µg/day): also decreased | IFNγ production by CNS infiltrating lymphocytes (EAE in B6 mice; [2]): significantly reduced | TNF production by CNS infiltrating lymphocytes (EAE in B6 mice; [2]): significantly reduced | formation of Treg cells (Treg cells; 1 nM): substantially enhances the formation of Treg cells | concentration at which transactivation of the Nurr1/RXR heterodimer is apparent (Nurr1/RXR heterodimer): 100 pM | concentration sufficient to achieve full activation of Nurr1/RXR (Nurr1/RXR heterodimer): 1 nM | activation of the Nurr1/RXR heterodimer (Nurr1/RXR heterodimer): selectively activates | symptoms of EAE in SJL mice (EAE in SJL mice): significantly reduces the symptoms of EAE | Death from Disease (EAE in SJL mice; [3]): 0/6 | Disease Incidence (EAE in SJL mice; [3]): 4/6 | Mean Maximum Score (EAE in SJL mice; [3]): 1.5 ± 1.4 | EC10 with RARα (RARα): about 300 nM

— patent US20230129034A1, “TREATMENT OF DISEASE WITH ESTERS OF SELECTIVE RXR AGONISTS” (Io Therapeutics, Inc., priority 2017, published 2023)
